{"source": "patent US20100137266A1", "about": "“TREATMENT OF INSULIN RESISTANCE AND DISORDERS ASSOCIATED THEREWITH” (UNIVERSITETET I OSLO, priority 2006, published 2010)", "key": {"[1]": {"system": "human myotubes", "assay": "Lipogenesis and lipid distribution: acetate incorporation into FFA, DAG and TAG in myotubes", "type": "cell-based", "settings": "compared to control myotubes; for FFA synthesis from labeled acetate, increase / level of TAG from labeled acetate: 1 μM T0901317 or 10 μM 22-HC for 4 days; for level of DAG from labeled acetate: 1 μM T0901317 or 10 μM 22-R-HC for 4 days", "experimental": "Human myoblasts were differentiated and treated with LXR ligands as described in FIG. 3. The cells were then incubated with [1-^14C]acetate (2 μCi/ml, 0.1 mM) for 4 h before levels of free fatty acids (FFA), diacylglycerol (DAG) and triacylgycerol (TAG) were determined. Results present means±SEM (n=5; independent muscle cell donors). **p<0.05 vs all other treatments, ^#p<0.05 vs T0901317. Human skeletal muscle cell cultures. […] The biopsies were obtained with informed consent and by approval of the National Committee for Research Ethics, Oslo, Norway. Muscle cell cultures free of fibroblasts were established by the method of Henry et al. (Diabetes, 44, 936-946, 1995), with minor modifications. Briefly, muscle tissue was dissected in Ham's F-10 media at 4° C., dissociated by three successive treatments with 0.05% trypsin/EDTA, and satellite cells were re-suspended in SkGM with 2% FCS and no added insulin. The cells were grown on culture wells coated with ECM gel (Apmis, 109, 726-734, 2001). At about 80% confluence, fusion of myoblasts into multinucleated myotubes was achieved by growth in DMEM with 2% FCS. All cells used were at passage 4 to 6. After 2 days in DMEM the cells were exposed to vehicle (0.1% DMSO), 1 μM T0901317, 10 μ[…]-hydroxycholesterol (22-R-HC) or 10 μ[…]-hydroxycholesterol (22-S-HC) for 4 days. Lipogenesis and lipid distribution. Myotubes were exposed to DMEM supplemented with [1-^14C]acetic acid (2 μCi/ml, 0.1 mM) for 4 h to study lipogenesis and acetate incorporation into TAG and diacylglycerol (DAG). Myotubes were harvested and analyzed as described above (Palmitate uptake and lipid distribution)."}, "[2]": {"system": "human myotubes", "assay": "Glucose uptake (2-deoxy-D-glucose) in myotubes", "type": "cell-based", "settings": "for basal glucose uptake, increase: myotubes from young, healthy subjects, exposure for 4 days, 1 μmol/l T0901317 or 10 μmol/l 22-HC", "excerpt": "FIG. 7. Glucose transport is increased in human myotubes after chronic 22-S-HC treatment. Human myoblasts were allowed to differentiate for 2 days, and then exposed to 1 μmol/1 T0901317, 10 μmol/[…]) or 1, 2, 5 and 10 μmol/1 22-S-HC(S-HC) for 4 days. […] (A) Present means for glucose uptake±SEM (n=4). Basal level for control are 1.20±0.24 nmol/mg cell protein. (B) A representative dose-response curve for glucose uptake after 1, 2, 5 and 10 μmol/l 22-S-HC treatment (n=3). (C) Total RNA were reversely transcribed and analyzed by Real-Time RT-PCR. Results are normalized to levels of 36B4 and present means±SEM (n=4-6). Relative expressions of GLUT1, GLUT3, GLUT4, and hexokinase (HK)II, ^ap<0.05 vs control, ^dp<0.05 vs T0901317. Glucose Uptake. Skeletal biopsies were taken from M.vastus lateralis of healthy human donors and human myoblasts were allowed to differentiate for 4 days. On day 4, myotubes were exposed to T0901317 or 22-R-HC or 22-S-HC for another 4 days. […] Cells were solubilized by addition of 500 μl 0.1 mol/l NaOH. An aliquot (50 μl) was removed for protein determination (Bradford 1976) 300 μl was counted by liquid scintillation ([…] and Beck-Nielsen 2004)."}, "[3]": {"system": "GLUT1, GLUT3, GLUT4", "assay": "mRNA levels of glucose transporters in myotubes by Real-Time RT-PCR", "type": "cell-based, human", "settings": "for GLUT4 mRNA level, increase: 1 μmol/l T0901317 or 10 μmol/l 22-R-HC for 4 days", "excerpt": "FIG. 7. Glucose transport is increased in human myotubes after chronic 22-S-HC treatment. Human myoblasts were allowed to differentiate for 2 days, and then exposed to 1 μmol/1 T0901317, 10 μmol/[…]) or 1, 2, 5 and 10 μmol/1 22-S-HC(S-HC) for 4 days. […] (A) Present means for glucose uptake±SEM (n=4). Basal level for control are 1.20±0.24 nmol/mg cell protein. (B) A representative dose-response curve for glucose uptake after 1, 2, 5 and 10 μmol/l 22-S-HC treatment (n=3). (C) Total RNA were reversely transcribed and analyzed by Real-Time RT-PCR. Results are normalized to levels of 36B4 and present means±SEM (n=4-6). Relative expressions of GLUT1, GLUT3, GLUT4, and hexokinase (HK)II, ^ap<0.05 vs control, ^dp<0.05 vs T0901317. RNA isolation and analysis of gene expression by RT-PCR. Myotubes were washed, trypsinized and pelleted before total RNA was isolated by RNeasy Mini kit (Qiagen Sciences, Oslo, Norway) or Agilent Total RNA Mini kit (Matrix, Oslo, Norway) according to the suppliers total RNA isolation protocol. RNA samples were incubated with RNase-free DNase (Qiagen Sciences) for minimum 15 min in an additional step during the RNA isolation procedure. Total RNA (1 μg/μl) was reversely transcribed with […] primers using a Perkin-Elmer Thermal Cycler 9600 (25° C. for 10 min, 37° C. for 1 h, 99° C. for 5 min) and a TaqMan reverse-transcription reagents kit (Applied Biosystems). Real time PCR was performed using an ABI PRISM® 7000 Detection System. DNA expression was determined by SYBR® Green (Applied Biosystems), and primers [36B4 (Acc#M17885), ACSL1 (Acc#NM-001995), ABCA1 (Acc#AF165281), CD36 (Acc#L06850), FAS (Acc#U26644), GAPDH (Acc#J104038/M33197, GLUT4 (Acc#M20747), LXRα (Acc#U22662), LXR (Acc#U07132), Myogenin (Acc#X17651), MyoD (Acc#BC064493), PPARα (Acc#L02932), PPARδ (Acc#BC002715), PPARγ (Acc#L40904), SCD-1 (Acc#AB032261), SREBP1c (Acc#U00968)], GLUT1, (Acc#03195), GLUT3 ([…]) were designed using Primer Express® (Applied Biosystems). Each target gene was quantified in triplicates and carried out in a 25 μl reaction volume according to the suppliers protocol. […]"}}}
{"smiles": "O=S(=O)(c1ccccc1)N(CC(F)(F)F)c1ccc(C(O)(C(F)(F)F)C(F)(F)F)cc1", "note": "[Example T0901317]", "values": [{"measurement": "FFA synthesis from labeled acetate, increase", "setting": "[1]", "result": 2, "unit": "fold"}, {"measurement": "level of TAG from labeled acetate", "setting": "[1]", "result": "increased TAG"}, {"measurement": "level of DAG from labeled acetate", "setting": "[1]", "result": "increased levels of DAG"}, {"measurement": "basal glucose uptake, increase", "setting": "[2]", "result": "no effect"}, {"measurement": "glucose uptake after pre-treatment of myotubes (summary statement)", "setting": "[2]", "result": "only a slight or no significant effect"}, {"measurement": "GLUT4 mRNA level, increase", "setting": "[3]", "result": 4, "unit": "fold"}, {"measurement": "mRNA level of glucose transporter 1 (GLUT1)", "setting": "[3]; treatment for 4 days", "result": "tended to increase"}]}
{"smiles": "CC(C)CC[C@@H](O)[C@@H](C)[C@H]1CC[C@H]2[C@@H]3CC=C4C[C@@H](O)CC[C@]4(C)[C@H]3CC[C@]12C", "note": "[Example 22-R-HC, 22-R-hydroxycholesterol]", "values": [{"measurement": "FFA synthesis from labeled acetate, increase", "setting": "[1]", "result": 3, "unit": "fold"}, {"measurement": "level of TAG from labeled acetate", "setting": "[1]", "result": "slight increase"}, {"measurement": "level of DAG from labeled acetate", "setting": "[1]", "result": "did not change"}, {"measurement": "basal glucose uptake, increase", "setting": "[2]", "result": "tended to increase"}, {"measurement": "glucose uptake after pre-treatment of myotubes (summary statement)", "setting": "[2]", "result": "only a slight or no significant effect"}, {"measurement": "GLUT4 mRNA level, increase", "setting": "[3]", "result": 4, "unit": "fold"}]}
{"smiles": "CC(C)CC[C@H](O)[C@@H](C)[C@H]1CC[C@H]2[C@@H]3CC=C4C[C@@H](O)CC[C@]4(C)[C@H]3CC[C@]12C", "note": "[Example 22-S-HC, 22-S-hydroxycholesterol]", "values": [{"measurement": "FFA synthesis from labeled acetate, increase", "setting": "[1]", "result": "only tended to increase FFA synthesis slightly"}, {"measurement": "level of TAG from labeled acetate", "setting": "[1]", "result": "tendency towards reduced TAG"}, {"measurement": "reduction for DAG from labeled acetate", "setting": "[1]; 10 μM for 4 days", "result": "~50", "unit": "%"}, {"measurement": "basal glucose uptake, dose response", "setting": "[2]; 0, 1.0, 2.0, 5.0 and 10 μmol/l for 4 days", "result": "increased in a dose—dependent manner"}, {"measurement": "basal glucose uptake, increase", "setting": "[2]", "result": 2, "unit": "fold"}, {"measurement": "glucose uptake after pre-treatment of myotubes (summary statement)", "setting": "[2]", "result": "marked stimulation"}]}
